From patent US20160046592A1, “PHARMACEUTICAL COMPOSITION FOR THE TREATMENT OF DIABETES” (Ajinomoto Co., Inc., priority 2013, published 2016) come the findings set out here.

Where a name gives a salt, the structure may show the parent alone.

This assay concerns the target T1, human GYS1 (glycogen synthase) (Homo sapiens, UniProt P13807).
T1 construct: made in house; host or cells: HEK293T
T1 sequence (P13807 1-737): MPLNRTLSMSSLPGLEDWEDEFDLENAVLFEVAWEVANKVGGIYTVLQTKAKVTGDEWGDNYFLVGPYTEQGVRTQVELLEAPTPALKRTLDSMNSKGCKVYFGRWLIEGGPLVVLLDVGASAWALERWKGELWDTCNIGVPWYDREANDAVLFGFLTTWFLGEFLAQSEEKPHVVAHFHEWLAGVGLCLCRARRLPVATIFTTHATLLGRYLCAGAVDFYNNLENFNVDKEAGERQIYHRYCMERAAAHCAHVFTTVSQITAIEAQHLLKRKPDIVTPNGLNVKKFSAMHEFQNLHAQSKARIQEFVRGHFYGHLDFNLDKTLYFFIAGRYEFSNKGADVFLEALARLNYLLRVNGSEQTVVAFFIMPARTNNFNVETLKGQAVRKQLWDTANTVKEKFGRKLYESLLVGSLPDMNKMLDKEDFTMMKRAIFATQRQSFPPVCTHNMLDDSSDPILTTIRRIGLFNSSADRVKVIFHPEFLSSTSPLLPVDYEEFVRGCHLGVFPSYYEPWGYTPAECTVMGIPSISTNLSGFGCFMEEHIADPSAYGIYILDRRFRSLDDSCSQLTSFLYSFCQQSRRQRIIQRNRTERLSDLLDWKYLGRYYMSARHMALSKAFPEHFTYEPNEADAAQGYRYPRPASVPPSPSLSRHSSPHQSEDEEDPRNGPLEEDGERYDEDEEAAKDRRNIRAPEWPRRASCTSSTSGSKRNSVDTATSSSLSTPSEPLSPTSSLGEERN
Briefly: Measurement of glycogen synthase activity. The settings on record: concentration causing 50% increase in relative activity; 100% = compound of Example 1 of WO/2011/058154 at 10 μM; 10 mM Glucose-6-phosphate; 37° C. for 25 minutes (Examples 1 to 61 and 67 to 82) or 20 minutes (Examples 62 to 66); absorbance at 340 nm. It is filed as biochemical. Here is the method: A human GYS1 expression plasmid (pCDNA3.1(+)-hGYS1) was constructed by the following method. By using a human skeletal muscle cDNA of Human MTC Panel I (Takara Bio Inc., 636742) as a template, a human GYS1 gene was amplified by a PCR method using cloning primers (Forward Primer: ATGCCTTTAAACCGCAC, Reverse Primer: TTAGTTACGCTCCTCGC). By using the amplified human GYS1 sequence as a template, restriction enzyme sequences were added by a PCR method using sub-cloning primers (Forward Primer: […], and Reverse Primer: […]), and then the human GYS1 gene was introduced between Xho I and Xba I sites of pCDNA3.1(+) (Invitrogen, V790-20).
Glycogen synthase was prepared by the following method. Human kidney-derived HEK293T cells were seeded in a dish (Thermo Fisher Scientific K.K., 168381) by using a 10% FBS-containing DMEM (Nacalai Tesque, Inc., 0845874) medium, and cultured overnight. Then, by using Lipofectamine LTX (Invitrogen, 15338-100), the cells were transfected with the human GYS1 expression vector according to the attached manual. After culturing under conditions of 37° C. and 5% CO2 for 2 days, the resultant was lysed in a lysis buffer (50 mM Tris-HCl (pH 8.0), 10 mM EDTA, 2 mM EGTA, 100 mM NaF, 1 mM PMSF, 1 mM DTT, and 1× Complete (Roche, 1873580)), homogenized, and then centrifuged at 16000×g at 4° C. for 15 minutes. The precipitated fraction re-dissolved by adding the lysis buffer was used as a glycogen synthase for evaluation.
The glycogen synthase activity was measured by the following method. To a polystyrene 96-well plate, solutions each containing 30 mM glycylglycine (pH 7.3), 40 mM KCl, 20 mM MgCl2, 9.2% DMSO containing one of the test compounds at one of various concentrations, and 10 mM Glucose-6-phosphate (Sigma-Aldrich, G7879) were added at 12 μL/well.
Next, a substrate solution containing 30 mM glycylglycine (pH 7.3), 4.3 mg/mL glycogen (Sigma-Aldrich, G8876), 21.6 mM UDP-glucose (Sigma-Aldrich, U4625), 21.6 mM phosphoenolpyruvic acid (Sigma-Aldrich, P0564), and 4.05 mM NADH (Sigma-Aldrich, N8129) was added at 18 μL/well.
Moreover, an enzyme solution containing 50 mM Tris-HCl (pH 8.0), 27 mM DTT (NACALAI TESQUE, INC., 14128-04), 0.2 mg/mL bovine serum albumin, 0.17 mg/mL glycogen synthase, and 1.5 μL pyruvate kinase/lactate dehydrogenase solution (Sigma-Aldrich, P0294) was added at 18 μL/well to prepare reaction solutions. After the reaction solutions were incubated (at 37° C. for 25 minutes for Examples 1 to 61 and 67 to 82 or at 37° C. for 20 minutes for Examples 62 to 66), the absorbance at 340 nm was measured by using Benchmark Plus (Bio-Rad Laboratories, Inc.).
The activity of each test compound was calculated by the following method. The absorbance at 340 nm of the reaction solution containing the compound and DMSO was subtracted from the absorbance at 340 nm of a reaction solution not containing the compound but containing only DMSO to calculate the change (ΔA340) in absorbance. The relative activity (%) of the test compound at each of the various concentrations was calculated, where the ΔA340 of a reaction solution containing the compound of Example 1 of WO/2011/058154 at a final concentration of 10 μM was taken as 100%. EC50 representing the concentration of the compound at which an increase in the relative activity by 50% was caused was calculated using XLfit (idbs).
As for `CNC(=O)CN(CC(=O)O)C(=O)c1cccc(COc2ccc(-c3cc(F)c(F)c4ccoc34)cc2)c1` [Example 15, 2-[[3-[[4-(4,5-Difluorobenzofuran-7-yl)phenoxy]methyl]benzoyl]-[2-(methylamino)-2-oxo-ethyl]amino]acetic Acid], the EC50 stood at 13 nM.

In turn, `CS(=O)(=O)NCCN(CC(=O)O)C(=O)c1cccc(COc2ccc(-c3cc(F)c(F)c4ccoc34)cc2)c1` [Example 16, 2-[[3-[[4-(4,5-Difluorobenzofuran-7-yl)phenoxy]methyl]benzoyl]-[2-(methanesulfonamido)ethyl]amino]acetic Acid] gave an EC50 of 16 nM.

As to `CSc1cc(F)c(F)cc1-c1ccc(OCc2cccc(C(=O)N(CCNS(C)(=O)=O)CC(=O)O)c2)cc1` [Example 17, 2-[[3-[[4-(4,5-Difluoro-2-methylsulfanyl-phenyl)phenoxy]methyl]benzoyl]-[2-(methanesulfonamido)ethyl]amino]acetic Acid], the EC50 was 10 nM.

In turn, `CC(C)(O)CCN(CC(=O)O)C(=O)c1cccc(COc2ccc(-c3cc(F)c(F)c4ccoc34)cc2)c1` [Example 18, 2-[[3-[[4-(4,5-Difluorobenzofuran-7-yl)phenoxy]methyl]benzoyl]-(3-hydroxy-3-methyl-butyl)amino]acetic Acid] came in with an EC50 of 7.3 nM.

For the compound `CSc1cc(F)c(F)cc1-c1ccc(OCc2cccc(C(=O)N(CC(=O)O)Cc3ccncc3)c2)cc1` [Example 19, 2-[[3-[[4-(4,5-Difluoro-2-methylsulfanyl-phenyl)phenoxy]methyl]benzoyl]-(4-pyridylmethyl)amino]acetic Acid Trifluoroacetate], the EC50 is 3.4 nM.

Regarding `CSc1cc(F)c(F)cc1-c1ccc(OCc2cccc(C(=O)N(CC(=O)O)Cc3ccccn3)c2)cc1` [Example 20, 2-[[3-[[4-(4,5-Difluoro-2-methylsulfanyl-phenyl)phenoxy]methyl]benzoyl]-(2-pyridylmethyl)amino]acetic Acid Trifluoroacetate], the EC50 came out at 6.5 nM.

`CSc1cc(F)c(F)cc1-c1ccc(OCc2cccc(C(=O)N(CCC(C)O)CC(=O)O)c2)cc1` (stereo not shown) [Example 21, 2-[[3-[[4-(4,5-Difluoro-2-methylsulfanyl-phenyl)phenoxy]methyl]benzoyl]-(3-hydroxybutyl)amino]acetic Acid] returned an EC50 of 15 nM.

Consider `CSc1cc(F)c(F)cc1-c1ccc(OCc2cccc(C(=O)N(CC(=O)O)[C@@H](C)C(N)=O)c2)cc1` [Example 22, 2-[[(1S)-2-Amino-1-methyl-2-oxo-ethyl]-[3-[[4-(4,5-difluoro-2-methylsulfanyl-phenyl)phenoxy]methyl]benzoyl]amino]acetic Acid], for which the EC50 was found to be 13 nM.

As for `COC(C)(C)CN(CC(=O)O)C(=O)c1cccc(COc2ccc(-c3cc(F)c(F)cc3SC)cc2)c1` [Example 23, 2-[[3-[[4-(4,5-Difluoro-2-methylsulfanyl-phenyl)phenoxy]methyl]benzoyl]-(2-methoxy-2-methyl-propyl)amino]acetic Acid], the EC50 is 17 nM.

With `CCN(CC)CCN(CC(=O)O)C(=O)c1cccc(COc2ccc(-c3cc(F)c(F)cc3SC)cc2)c1` [Example 24, 2-[2-Diethylaminoethyl-[3-[[4-(4,5-difluoro-2-methylsulfanyl-phenyl)phenoxy]methyl]benzoyl]amino]acetic Acid Trifluoroacetate], the EC50 was determined as 11 nM.

The compound `CSc1cc(F)c(F)cc1-c1ccc(OCc2cccc(C(=O)N(CC(=O)O)CC(=O)N3CCCC3)c2)cc1` [Example 25, 2-[[3-[[4-(4,5-Difluoro-2-methylsulfanyl-phenyl)phenoxy]methyl]benzoyl]-(2-oxo-2-pyrrolidin-1-yl-ethyl)amino]acetic Acid] had an EC50 of 15 nM.

On to `CSc1cc(F)c(F)cc1-c1ccc(OCc2cccc(C(=O)N(CCCN(C)C)CC(=O)O)c2)cc1` [Example 26, 2-[[3-[[4-(4,5-Difluoro-2-methylsulfanyl-phenyl)phenoxy]methyl]benzoyl]-[3-(dimethylamino)propyl]amino]acetic Acid Trifluoroacetate], for which the EC50 was found to be 14 nM.

Compound `CSc1cc(F)c(F)cc1-c1ccc(OCc2cccc(C(=O)N(CC(=O)O)CC(=O)O)c2)cc1` [Example 27, 2-[Carboxymethyl-[3-[[4-(4,5-difluoro-2-methylsulfanyl-phenyl)phenoxy]methyl]benzoyl]amino]acetic Acid] registered an EC50 of 10 nM.

On to `CNCCN(CC(=O)O)C(=O)c1cccc(COc2ccc(-c3cc(F)c(F)cc3SC)cc2)c1` [Example 28, 2-[[3-[[4-(4,5-Difluoro-2-methylsulfanyl-phenyl)phenoxy]methyl]benzoyl]-[2-(methylamino)ethyl]amino]acetic Acid Trifluoroacetate], for which the EC50 was found to be 10 nM.

`CSc1cc(F)c(F)cc1-c1ccc(OCc2cccc(C(=O)N3C[C@H](O)C[C@H]3C(=O)O)c2)cc1` [Example 29, (2S,4R)-1-[3-[[4-(4,5-Difluoro-2-methylsulfanyl-phenyl)phenoxy]methyl]benzoyl]-4-hydroxy-pyrrolidine-2-carboxylic Acid]: the EC50 was 19 nM.

Turning to `COCCCN(CC(=O)O)C(=O)c1cccc(COc2ccc(-c3cc(F)c(F)cc3SC)cc2)c1` [Example 30, 2-[[3-[[4-(4,5-Difluoro-2-methylsulfanyl-phenyl)phenoxy]methyl]benzoyl]-(3-methoxypropyl)amino]acetic Acid], the EC50 came out at 15 nM.

`CSc1cc(F)c(F)cc1-c1ccc(OCc2cccc(C(=O)N(CCS(C)(=O)=O)CC(=O)O)c2)cc1` [Example 31, 2-[[3-[[4-(4,5-Difluoro-2-methylsulfanyl-phenyl)phenoxy]methyl]benzoyl]-(2-methylsulfonylethyl)amino]acetic Acid] came in with an EC50 of 18 nM.

`CSc1cc(F)c(F)cc1-c1ccc(OCc2cccc(C(=O)N(CCCS(C)(=O)=O)CC(=O)O)c2)cc1` [Example 32, 2-[[3-[[4-(4,5-Difluoro-2-methylsulfanyl-phenyl)phenoxy]methyl]benzoyl]-(3-methylsulfonylpropyl)amino]acetic Acid] displayed an EC50 of 20 nM.

The compound `CSc1cc(F)c(F)cc1-c1ccc(OCc2cccc(C(=O)N(CC(=O)O)CC3CCOCC3)c2)cc1` [Example 34, 2-[[3-[[4-(4,5-Difluoro-2-methylsulfanyl-phenyl)phenoxy]methyl]benzoyl]-(tetrahydropyran-4-ylmethyl)amino]acetic Acid] displayed an EC50 of 24 nM.
